The values that follow are results of earlier work, collected in patent US20150246117A1, “TREATMENT OF TYPE 2 DIABETES AND RELATED CONDITIONS” (priority 2012, published 2015).

Where two headings read alike, the source gives them in different places.

For series [1] the following is noted: for hypoglycemia in combination therapy: combined with sulfonylurea, insulin secretagogue or insulin.
The subject of the next series is CYP3A4/5. To be noted: coadministration with strong CYP3A4/5 inhibitors (e.g., ketoconazole).
For series [2] the following is noted: in vivo.
The conditions of series [3]: co-administration of 100 mg sitagliptin for 10 days.

Regarding taspoglutide, the “patients showing antibodies against the drug” value in series [1] (human, in vivo) is reported as “(compared to exenatide); 49% of patients”.
In the case of `CCCCCCCCCCCCCCCC(=O)N[C@@H](CCC(=O)NCCCC[C@H](NC(=O)[C@H](C)NC(=O)[C@H](C)NC(=O)[C@H](CCC(N)=O)NC(=O)CNC(=O)[C@H](CCC(=O)O)NC(=O)[C@H](CC(C)C)NC(=O)[C@H](Cc1ccc(O)cc1)NC(=O)[C@H](CO)NC(=O)[C@H](CO)NC(=O)[C@@H](NC(=O)[C@H](CC(=O)O)NC(=O)[C@H](CO)NC(=O)[C@@H](NC(=O)[C@H](Cc1ccccc1)NC(=O)[C@@H](NC(=O)CNC(=O)[C@H](CCC(=O)O)NC(=O)[C@H](C)NC(=O)[C@@H](N)Cc1cnc[nH]1)[C@@H](C)O)[C@@H](C)O)C(C)C)C(=O)N[C@@H](CCC(=O)O)C(=O)N[C@@H](Cc1ccccc1)C(=O)N[C@H](C(=O)N[C@@H](C)C(=O)N[C@@H](Cc1c[nH]c2ccccc12)C(=O)N[C@@H](CC(C)C)C(=O)N[C@H](C(=O)N[C@@H](CCCNC(=N)N)C(=O)NCC(=O)N[C@@H](CCCNC(=N)N)C(=O)NCC(=O)O)C(C)C)[C@@H](C)CC)C(=O)O` [liraglutide], in series [1] (treated patients in clinical trials (comparator-treated 0.4%)), the “Immunogenicity-related events, including urticaria” value is listed as “Victoza-treated patients (0.8%) than among”.
`COc1ccc2cc3[n+](cc2c1OC)CCc1cc2c(cc1-3)OCO2` [berberine]: the Half-life (in vivo) is 3 to 4 h. In series [1] (human, in vivo), the “adverse events / tolerability in clinical studies” value (from here on “adverse events / tolerability”) is given as “Transient gastrointestinal adverse”.
With `Cn1c(=O)cc(N2CCC[C@@H](N)C2)n(Cc2ccccc2C#N)c1=O` [Alogliptin], the Half-life (in vivo) was 12.4 to 21.4 h. In series [1] (human, in vivo), the “adverse events / tolerability” value is listed as “The agent is relatively well tolerated” and the “rate of skin events, primarily pruritus” value is on record as “finding being a marginally higher rate”.
Turning to `N#C[C@@H]1C[C@@H]2C[C@@H]2N1C(=O)[C@@H](N)C12CC3CC(CC(O)(C3)C1)C2` [saxagliptin], the Half-life (after oral 5 mg) was 2.5 h after. In addition, the saxagliptin concentrations entry in the series with CYP3A4/5 is recorded as “increases”. In series [1] (combination with a thiazolidinedione (TZD) vs placebo and TZD), the Peripheral edema entry is “Peripheral edema was reported more”.
As for `CC#CCn1c(N2CCC[C@@H](N)C2)nc2c1c(=O)n(Cc1nc(C)c3ccccc3n1)c(=O)n2C` [linagliptin], the Half-life (after 5 mg dose) was above 100 h after 5 mg. Moreover, in series [1], the “hypoglycemia in combination therapy” value is “Hypoglycemia was more commonly”.
As to `N#C[C@@H]1CCCN1C(=O)CNC12CC3CC(CC(O)(C3)C1)C2` [vildagliptin], in series [2], the “excretion in milk, animal studies” value was “excretion of vildagliptin”.
Consider Dulaglutide, for which the “adverse events / tolerability” value in series [1] (human, in vivo) is reported as “Gastrointestinal adverse events reported”.
For the compound `N[C@@H](CC(=O)N1CCn2c(nnc2C(F)(F)F)C1)Cc1cc(F)c(F)cc1F` [sitagliptin], the Half-life (after oral) is recorded as 12.4 h after. Further, the “increase in area under the curve (AUC) of digoxin” value in series [3] is on record as “curve (AUC, 11%)”. Besides, the “fertility / fetal harm, animal studies or animal data” value in series [2] is “JANUVIA did not impair”. In addition, the “hypoglycemia in combination therapy” value in series [1] is recorded as “There is an increased risk of”.
Regarding `O=C(CN[C@@H]1CCNC1)N1CCC[C@H]1B(O)O` [dutogliptin], the Half-life (in vivo) was 10 to 13 h.
As for `N[C@@H](CC(=O)N1CCc2c(nc(C(F)(F)F)nc2C(F)(F)F)C1)CN1CC(F)(F)CCC1=O` [Gemigliptin], the Half-life (in vivo) is 17 to 21 h. Moreover, the “adverse events / tolerability” value in series [1] (human, in vivo) was “No serious adverse events recorded”.
